As usually defined, the IC50 is the midpoint of a concentration-inhibition curve. In general, TD50 refers to the 50% point of the dose-response relation for the toxic effect studied. A low value points to harm at a small dose.

Experimental findings from patent US8372844B2, “Piperazinyl-propyl-pyrazole derivatives as dopamine D4 receptor antagonists, and pharmaceutical compositions containing the same” (Korea Research Institute of Chemical Technology, priority 2007, dated 2013) are described below.

For series [1], the system named is apomorphine-induced cage climbing in mice. Nature of the series: Apomorphine-induced climbing behavior in mice. It counts as in vivo. As to conditions: ip 30 min prior to apomorphine (1 mg/kg, sc); for ED50: Mus musculus, read-out: Inhibitory effects on apomorphine-induced climbing behavior ED50 (mg/kg, ip). The procedure: When mice were treated with apomorphine (1 mg/kg, sc), a potent dopamine receptor agonist, and were put into cylindrical cages (diameter, 12 cm/height, 14 cm) with the floor and wall consisting of metal bars and covered with a lid, they begin to perform repeatedly a psychotic behavior of ‘cage climbing’. Their climbing behaviors were monitored every 10 min for 30 min and scored by 4-point rating scale (0˜3 points) depending on the extent of the behavior (Costentin, J. et al., Nature 1975, 257, 405-7; Protais, P. et al., Psychopharmacology 1976, 50, 1-6).
The compounds were injected intraperitoneally into mice 30 min prior to apomorphine administration. The inhibitory effects of the compounds against control group were measured and each ED50 was calculated therefrom.

For series [2], the system named is rotarod deficit in mice. Kind of series: Rotarod deficit in mice. It counts as in vivo. As to conditions: ip. The procedure: (§1) Each mouse was administered with a test drug, and then placed on a 1 inch diameter knurled plastic rod rotating at 6 rpm (Ugo-Basile, Milano, Italy), and the rotarod deficit (%) was obtained by counting the number of mice fallen from the rotating rod within 1 min at 30, 60, 90, and 120 min after the administration of the drug.
On the technique in general: Falling from the rotarod earlier than controls is read as motor impairment.

For a further series, the target named is T1, 5-HT2C receptor (Homo sapiens, UniProt P28335).
T1 sequence (P28335 33-458): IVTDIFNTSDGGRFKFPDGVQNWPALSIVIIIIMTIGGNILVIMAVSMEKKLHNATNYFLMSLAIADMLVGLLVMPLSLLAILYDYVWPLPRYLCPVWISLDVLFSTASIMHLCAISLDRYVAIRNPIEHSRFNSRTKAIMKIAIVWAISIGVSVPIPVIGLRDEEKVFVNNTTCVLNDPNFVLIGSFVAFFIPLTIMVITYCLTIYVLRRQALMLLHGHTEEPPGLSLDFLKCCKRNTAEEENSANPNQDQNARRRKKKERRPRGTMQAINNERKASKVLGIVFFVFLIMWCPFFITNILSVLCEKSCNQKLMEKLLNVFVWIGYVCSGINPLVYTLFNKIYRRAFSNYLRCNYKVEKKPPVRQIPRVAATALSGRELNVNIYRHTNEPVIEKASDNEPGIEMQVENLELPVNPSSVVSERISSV
Kind of series: Serotonin receptor binding experiment, 5-HT2C. Details: species or system human or rat. As to conditions: [3H]Mesulergine 1 nM, 30 min at 37° C.; read-out: Receptor affinity (IC50, nM) 5-HT2C. Here is the method:
(§2) The measurement of affinity for serotonin 5-HT receptor family was performed according to the experimental conditions as specified in Table 2 below using the method same as in Experimental Example 1 above.

Another series addresses 5-HT7 receptor (Homo sapiens, UniProt P34969). Nature of the series: Serotonin receptor binding experiment, 5-HT7. Details: species or system human or rat. As to conditions: [3H]LSD 3 nM, 90 min at 27° C.; read-out: Receptor affinity (IC50, nM) 5-HT7. Here is the method:
as §2

Another series deals with T2, 5-HT1A receptor (Homo sapiens, UniProt P08908).
T2 sequence (P08908 1-422): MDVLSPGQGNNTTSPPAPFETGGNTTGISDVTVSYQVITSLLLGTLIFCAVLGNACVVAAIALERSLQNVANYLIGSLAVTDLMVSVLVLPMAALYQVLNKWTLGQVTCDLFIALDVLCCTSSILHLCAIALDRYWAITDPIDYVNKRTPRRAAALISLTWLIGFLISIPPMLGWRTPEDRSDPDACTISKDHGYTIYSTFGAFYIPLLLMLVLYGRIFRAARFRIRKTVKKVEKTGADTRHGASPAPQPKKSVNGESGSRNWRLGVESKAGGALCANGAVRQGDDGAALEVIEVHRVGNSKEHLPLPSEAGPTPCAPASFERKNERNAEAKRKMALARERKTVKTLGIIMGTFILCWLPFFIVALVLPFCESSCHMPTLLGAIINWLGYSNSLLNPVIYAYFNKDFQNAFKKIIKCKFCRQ
Nature of the series: Serotonin receptor binding experiment, 5-HT1A. Set-up: species or system human or rat. As to conditions: [3H]8-OH-DPAT 0.5 nM, 60 min at 27° C.; read-out: Receptor affinity (IC50, nM) 5-HT1A. The procedure:
as §2

Another series addresses 5-HT6 receptor (Homo sapiens, UniProt P50406). Nature of the series: Serotonin receptor binding experiment, 5-HT6. Set-up: species or system human or rat. As to conditions: [3H]LSD 1.8 nM, 60 min at 37° C.; read-out: Receptor affinity (IC50, nM) 5-HT6. Here is the method: as §2
A further series addresses 5-HT2A receptor (Homo sapiens, UniProt P28223). Kind of series: Serotonin receptor binding experiment, 5-HT2A. Details: species or system human or rat. As to conditions: [3H]ketanserin 1 nM, 15 min at 37° C.; read-out: Receptor affinity (IC50, nM) 5-HT2A. The procedure: as §2
Series [3] addresses T3, human recombinant dopamine D4.2 receptor (Homo sapiens, UniProt P21917, DEL265-296).
T3 construct: purchased PerkinElmer Life and Analytical Sciences, USA; host or cells: CHO-K1 cells
T3 sequence (P21917 with tags, fused parts or gaps DEL265-296): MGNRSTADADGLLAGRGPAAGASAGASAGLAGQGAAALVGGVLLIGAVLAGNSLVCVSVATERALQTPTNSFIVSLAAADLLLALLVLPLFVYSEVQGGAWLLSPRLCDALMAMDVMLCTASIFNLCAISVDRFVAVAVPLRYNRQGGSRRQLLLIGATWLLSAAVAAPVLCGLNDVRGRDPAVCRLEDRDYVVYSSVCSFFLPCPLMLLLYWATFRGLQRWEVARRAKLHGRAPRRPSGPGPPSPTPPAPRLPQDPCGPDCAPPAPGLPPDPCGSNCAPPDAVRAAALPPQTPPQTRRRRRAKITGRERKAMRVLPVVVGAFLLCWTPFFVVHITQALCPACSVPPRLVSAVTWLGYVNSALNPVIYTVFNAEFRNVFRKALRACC
Kind of series: Measurement of affinity for dopamine D4 receptor ([3H]YM-09151-2 binding). As to conditions: [3H]YM-09151-2 0.1 nM, receptor expressed in CHO-K1 cells, 120 min at 25° C. The procedure:
The affinities of the compounds for dopamine D4 receptor were measured by using human recombinant dopamine D4.2 receptor (PerkinElmer Life and Analytical Sciences, USA) expressed in CHO-K1 cells, and [^3H]YM-09151-2 (PerkinElmer) was used as a radioactive ligand.
50 mM Tris-HCl (pH 7.4) containing 120 mM NaCl, 5 mM KCl, 5 mM MgCl2 and 1 mM EDTA was used as a buffer solution for the analysis of receptor binding. [^3H] YM-09151-2 binding reactions were performed in a 96-well plate format.
For drug screening, a reaction mixture with a final volume of 0.25 mL was prepared by mixing a compound of the present invention, D4 receptor membrane (43 μg/well), [^3H] YM-09151-2 (0.1 nM), 50 mM Tris-HCl (pH 7.4) and the like. The reaction mixture was incubated for 120 min at 25° C., and then promptly passed through Wallac GF/C glass fiber filter (Wallac, Finland), which was already wetted in 0.5% PEI, by using Inotech harvester (Inotech) to terminate the reaction, and then washed with cold 50 mM Tris-HCl buffer solution. The filter was then covered with MeltiLex, sealed in a sample bag, and then dried in an oven. The radioactivity retained in the filter was finally counted using MicroBeta Plus, Wallac.
The affinity (IC50) of a compound for the receptor was calculated via nonlinear regression analysis of sigmoidal dose-response equation with the data obtained from three independent experiments (GraphPad Prism Program, San Diego, USA), which are carried out using 7-8 different concentrations of the compound in duplicate. Nonspecific binding was measured in the presence of 10 μM clozapine.

The target of series [4] is T4, Human recombinant dopamine D3 receptor (Homo sapiens, UniProt P35462).
T4 construct: purchased Euroscreen; host or cells: CHO cell line
T4 sequence (P35462 whole entry): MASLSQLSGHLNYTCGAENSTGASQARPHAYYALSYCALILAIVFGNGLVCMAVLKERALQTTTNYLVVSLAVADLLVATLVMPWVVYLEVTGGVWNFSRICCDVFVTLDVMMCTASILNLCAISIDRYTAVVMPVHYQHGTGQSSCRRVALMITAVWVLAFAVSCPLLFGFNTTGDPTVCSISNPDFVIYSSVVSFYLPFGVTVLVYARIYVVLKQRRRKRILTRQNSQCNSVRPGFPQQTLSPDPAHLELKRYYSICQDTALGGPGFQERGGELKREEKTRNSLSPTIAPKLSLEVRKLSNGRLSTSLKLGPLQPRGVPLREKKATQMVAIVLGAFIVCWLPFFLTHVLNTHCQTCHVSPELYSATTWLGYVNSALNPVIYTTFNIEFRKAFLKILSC
Nature of the series: Measurement of affinity for dopamine D3 receptor ([3H]spiperone binding). As to conditions: [3H]spiperone 0.8 nM, CHO cell line, 60 min at 27° C. The procedure:
(§3) Human recombinant dopamine D2 and D3 receptors, which were expressed in CHO cell lines, respectively, were purchased from PerkinElmer and Euroscreen, respectively.
(§4) 50 mM Tris-HCl (pH 7.4) containing […] and 1 mM EDTA was used as a buffer solution for the measurement of affinity for dopamine D2 receptor. 50 mM Tris-HCl (pH 7.4) containing 5 mM MgCl2, 5 mM EDTA, 5 mM KCl, 1.5 mM CaCl2 and 120 mM NaCl was used as a buffer solution for the measurement of affinity for dopamine D3 receptor. For measurement of non-specific binding, 10 μM haloperidol (haloperidol) was used.

In series [5] the target is T5, Human recombinant dopamine D2 receptor (Homo sapiens, UniProt P14416).
T5 construct: purchased PerkinElmer; host or cells: CHO cell line
T5 sequence (P14416 whole entry): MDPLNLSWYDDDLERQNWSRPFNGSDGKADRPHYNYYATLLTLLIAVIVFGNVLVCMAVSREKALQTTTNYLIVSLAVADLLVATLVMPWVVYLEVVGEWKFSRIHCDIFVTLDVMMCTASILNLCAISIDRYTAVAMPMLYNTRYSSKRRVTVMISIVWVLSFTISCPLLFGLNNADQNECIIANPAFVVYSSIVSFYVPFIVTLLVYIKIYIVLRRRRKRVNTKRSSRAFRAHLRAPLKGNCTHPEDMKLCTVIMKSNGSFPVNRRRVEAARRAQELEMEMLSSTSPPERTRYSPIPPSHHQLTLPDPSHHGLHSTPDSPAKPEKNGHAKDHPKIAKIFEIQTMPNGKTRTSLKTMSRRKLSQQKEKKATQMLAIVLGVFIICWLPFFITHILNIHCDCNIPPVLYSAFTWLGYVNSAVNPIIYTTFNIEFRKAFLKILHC
Nature of the series: Measurement of affinity for dopamine D2 receptor ([3H]spiperone binding). Here is the method:
as §3, §4

The nature of series [6]: Rotarod deficit in mice. As to conditions: mouse, in vivo; mice, ip, rod rotating at 6 rpm, 30-120 min after administration. It counts as in vivo. The procedure:
as §1

Chain of 5-HT2A receptor (P28223 whole entry): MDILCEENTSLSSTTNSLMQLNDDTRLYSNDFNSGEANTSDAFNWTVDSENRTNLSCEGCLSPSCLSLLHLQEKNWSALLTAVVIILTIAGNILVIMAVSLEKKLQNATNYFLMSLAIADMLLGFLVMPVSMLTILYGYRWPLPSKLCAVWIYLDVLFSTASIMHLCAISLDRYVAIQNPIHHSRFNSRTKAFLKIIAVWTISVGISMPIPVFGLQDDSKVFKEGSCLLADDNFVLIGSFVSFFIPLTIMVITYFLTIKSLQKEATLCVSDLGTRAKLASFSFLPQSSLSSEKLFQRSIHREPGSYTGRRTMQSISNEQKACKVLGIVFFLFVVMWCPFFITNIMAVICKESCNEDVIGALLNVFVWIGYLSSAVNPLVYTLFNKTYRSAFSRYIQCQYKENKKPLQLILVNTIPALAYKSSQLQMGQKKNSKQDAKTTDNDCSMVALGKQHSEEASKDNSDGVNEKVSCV
Chain of 5-HT7 receptor (P34969 whole entry): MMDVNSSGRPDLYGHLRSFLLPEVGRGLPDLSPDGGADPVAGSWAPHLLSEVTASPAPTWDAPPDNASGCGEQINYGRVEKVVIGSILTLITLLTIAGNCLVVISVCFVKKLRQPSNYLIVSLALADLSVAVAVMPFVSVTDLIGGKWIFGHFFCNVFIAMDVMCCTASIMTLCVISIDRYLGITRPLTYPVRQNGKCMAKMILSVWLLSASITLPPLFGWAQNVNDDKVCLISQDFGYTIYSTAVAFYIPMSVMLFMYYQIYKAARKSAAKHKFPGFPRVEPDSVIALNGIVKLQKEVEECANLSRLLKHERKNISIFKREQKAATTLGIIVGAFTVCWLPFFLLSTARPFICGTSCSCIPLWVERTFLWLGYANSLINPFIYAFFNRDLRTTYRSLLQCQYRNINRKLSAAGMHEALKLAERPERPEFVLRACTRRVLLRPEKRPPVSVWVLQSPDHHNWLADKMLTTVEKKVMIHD
Chain of 5-HT6 receptor (P50406 whole entry): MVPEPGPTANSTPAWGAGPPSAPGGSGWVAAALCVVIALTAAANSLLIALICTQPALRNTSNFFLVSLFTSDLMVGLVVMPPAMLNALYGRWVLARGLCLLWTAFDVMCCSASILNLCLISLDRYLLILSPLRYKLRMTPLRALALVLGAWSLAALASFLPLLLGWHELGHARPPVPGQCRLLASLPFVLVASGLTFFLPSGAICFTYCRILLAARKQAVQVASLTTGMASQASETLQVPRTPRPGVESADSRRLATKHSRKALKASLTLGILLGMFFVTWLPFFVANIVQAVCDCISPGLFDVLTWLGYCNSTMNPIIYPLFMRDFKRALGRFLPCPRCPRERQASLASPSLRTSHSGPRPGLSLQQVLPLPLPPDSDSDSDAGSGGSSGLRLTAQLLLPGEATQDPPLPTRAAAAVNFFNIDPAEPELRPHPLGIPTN

In the case of `CCCc1cc(CCCN2CCN(c3ccc(Cl)cc3)CC2)n(-c2ccccc2)n1` [Compound 157, 1-(4-chlorophenyl)-4-(3-(1-phenyl-3-propyl-1H-pyrazol-5-yl)propyl)piperazine], in series [1], the ED50 was in the range of 8.8 to 14.5 mg/kg and the “Inhibitory effects on apomorphine-induced climbing behavior ED50 (mg/kg, ip)” value is 14.5 mg/kg. The “rotarod deficit TD50 as times of ED50 for antipsychotic efficacy” value in the series with rotarod deficit in mice [2] (mouse, in vivo) was 2.2-5 times.

Regarding `CCCc1cc(CCCN2CCN(c3ccc(Cl)c(Cl)c3)CC2)n(-c2ccccc2)n1` [Compound 163, 1-(3,4-dichlorophenyl)-4-(3-(1-phenyl-3-propyl-1H-pyrazol-5-yl)propyl)piperazine], the IC50 on 5-HT2C receptor came to 558 nM; at 5-HT7 receptor, 651 nM; at 5-HT1A receptor, 494 nM; at 5-HT6 receptor, 617 nM; at 5-HT2A receptor it was 45 nM; in [3], 7.7 nM. For the same compound, the IC50 came to 420 nM in series [4] and 1060 nM in [5] ([3H]spiperone 0.5 nM, CHO cell line, 60 min at 27° C.). In series [5], the “affinity for D2 receptors (in words)” value is “extremely poor affinity”.

On to `CN1CCN(C2=Nc3cc(Cl)ccc3Nc3ccccc32)CC1` [clozapine, reference compound], for which the ED50 in series [1] amounted to 4 mg/kg. Besides, in the series “Rotarod deficit in mice [6]”, the TD50 is 3.9 mg/kg. The “rotarod deficit TD50 as times of ED50 for antipsychotic efficacy” value in the series on rotarod deficit in mice [2] (mice) was “almost same”.
